Assay results from patent US4774248A, “Methods of treating depression and depressive states using 5-phenyl-1,4,5,6-tetrahydropyrimidine derivatives” (priority 1985, dated 1988).
“Also recorded” adds a separate entry of the source.

Key:
chicken embryos = conditions: D. G. UPSHALL, Teratology, 1972; cited from earlier work
mice [1] = experiment: Overall behavior and reactivities in mice; assay type: in vivo; conditions: i.p.
Procedure: (§1) The results of toxicological and neuropsychopharmacological tests which were carried out with the products according to the invention have been summarized below. In these tests, solutions of the said products in distilled water were administered intraperitoneally in a volume of 20 ml/kg to male mice and in a volume of 5 ml/kg to male rats.
(§2) Groups of 3 animals are observed before and then 0.25 h, 0.50 h, 1 h, 2 h, 3 h and 24 h after the administration of CRL 41 378. The following observations are made:
(§3) Groups of 3 animals are observed before and then 0.25 h, 0.50 h, 1 h, 2 h, 3 h and 24 h after the administration of CRL 41 329.

[2] = system: central nervous system (CNS); experiment: Neuropsychopharmacological profile (conclusions of the tests); assay type: in vivo, mice and rats
Procedure: as §1

[3] = system: stereotypies induced by amphetamine; experiment: Interaction with amphetamine (rats); assay type: in vivo; conditions: i.p.; amphetamine 2 mg/kg
Procedure: as §1
Amphetamine (2 mg/kg) is injected intraperitoneally into groups of 6 rats 30 minutes after the administration of CRL 41 378.

mice [4] = experiment: Behavioral despair (forced immersion); assay type: in vivo; conditions: mice which have been forcibly immersed, i.p.
Procedure: as §1
Half an hour after they have received CRL 41 378, groups of 6 mice are placed in a beaker filled with water to a height of 6 cm. The total period of immobility between the 2nd and 6th minutes following immersion is noted.

male mice = experiment: Acute toxicity, intraperitoneal (LD0, LD30, LD60, LD100); assay type: in vivo
Procedure: as §1

rats = experiment: Overall behavior and reactivities in rats; assay type: in vivo; conditions: i.p.
Procedure: as §1, §2, §3

[5] = system: hypothermia, righting behavior and stereotypies induced by apomorphine; experiment: Interaction with apomorphine in mice; assay type: in vivo; conditions: i.p.
Procedure: as §1
CRL 41 378 is administered to groups of 6 mice 30 minutes before the subcutaneous injection of 1 or 16 mg/kg of apomorphine.

anesthetized dogs [6] = experiment: Cardiovascular study in anesthetized dogs; assay type: in vivo
Procedure: Groups of 2 adult dogs (each weighing 10 to 18 kg), anesthetized with nembutal, receive each test product (i) by intraduodenal administration at successive doses of 0.1 mg/kg, 0.5 mg/kg, 1 mg/kg, 2.5 mg/kg, 5 mg/kb, 10 mg/kg and 20 mg/kg, and then (ii) if appropriate, by intravenous administration at a dose of 10 mg/kg. The effects of 10 μg/kg of isoprenaline and/or 2 μg/kg of norepinephrine after the intraduodenal administration of a cumulative dose of 39.1 mg/kg are also assessed.
The following are measured: the total arterial blood pressure, the diastolic arterial blood pressure, the heart rate, the blood flows through the femoral and cerebral arteries and saphenous veins, the rectal temperature, the skin temperature and the pressure of the gases (essentially O2) dissolved in the arterial blood.

pregnant rabbits = experiment: Teratogenic effects on pregnant rabbits; assay type: in vivo
mice [7] = experiment: Motility reduced by hypoxic aggression (acute hypobaric anoxia); assay type: in vivo; conditions: i.p.
Procedure: In these tests, solutions of the said products in distilled water were administered intraperitoneally in a volume of 20 ml/kg to male mice and in a volume of 5 ml/kg to male rats.

[8] = system: trembling and head twitches induced by 5-hydroxytryptophan (5-HTP); experiment: Interaction with 5-hydroxytryptophan in association with an MAOI (nialamide); assay type: in vivo, male mice
Procedure: The purpose of the procedure used is to investigate the activity of each product according to the invention as regards the trembling induced by 5-hydroxytryptophan (5-HTP) in association with an MAOI (in this case nialamide).
Each test product, in solution in distilled water, is administered intraperitoneally in a volume of 20 ml/kg to male mice.
Groups of 10 mice receive nialamide (20 mg/kg, administered gastrically) at time T-18 h, each test product at time T-0.5 h and then (±)-5-HTP (20 mg/kg, administered intraperitoneally) at time T. Immediately after the injection of the (±)-5-HTP, the mice are individually placed in transparent plastic boxes. The generalized trembling, the partial trembling and the head twitches are noted on a yes/no basis for 2 h.

mice [9] = experiment: Asphyxiant anoxia caused by gallamine triiodoethylate; assay type: in vivo; conditions: i.p., gallamine triiodoethylate 32 mg/kg
Procedure: as §1
Groups of 10 mice receive CRL 41 378 30 minutes before the intraperitoneal administration of 32 mg/kg of gallamine triiodoethylate (reference curarizing agent).

mice [10] = experiment: Electric shock; assay type: in vivo; conditions: i.p.
Procedure: as §1
The test is performed on groups of 10 mice 30 minutes after the administration of CRL 41 378.

[11] = system: hypothermia induced by apomorphine; experiment: Interaction with apomorphine by gastric administration; assay type: in vivo; conditions: Mus musculus, male mice, apomorphine 16 mg/kg s.c., read-out: dose as from which the hypothermia induced by apomorphine is opposed
Procedure: Each test product is administered gastrically to male mice, in a volume of 20 ml/kg, 0.50 h before the subcutaneous injection of 16 mg/kg of apomorphine.

[12] = system: hypothermia, trembling and peripheral cholinergic symptoms induced by oxotremorine; experiment: Interaction with oxotremorine; assay type: in vivo; conditions: mice, i.p.; oxotremorine 0.5 mg/kg
Procedure: as §1
CRL 41 378 is administered to groups of 6 mice 0.5 h before the intraperitoneal injection of 0.5 mg/kg of oxotremorine.

[13] = system: hypothermia and ptosis induced by reserpine; experiment: Interaction with reserpine; assay type: in vivo; conditions: mice, i.p.; reserpine 2.5 mg/kg
Procedure: as §1
Four hours after the intraperitoneal injection of 2.5 mg/kg of reserpine, groups of 12 mice receive CRL 41 378.

anesthetized dogs [14] = experiment: Cardiovascular study in anesthetized dogs; assay type: in vivo; conditions: intraduodenal
mice [15] = experiment: Intergroup aggressiveness; assay type: in vivo; conditions: mice, i.p.
Procedure: as §1
After they have stayed for 3 weeks in the two halves of a cage divided by an opaque partition, groups of 3 mice receive CRL 41 378. Half an hour later, the two groups from the same cage are brought together by removal of the partition and the number of fights which occur in 10 minutes is noted.

[16] = system: depressions and depressive states; experiment: Clinical trials in depression and depressive states; assay type: in vivo, human; conditions: daily oral administration to adults
Procedure: The clinical trials which have been undertaken have made it possible to determine that the daily dose to be administered orally to adults, in the treatment of depressions and depressive states, is generally between 3 and 120 mg for the products of the formulae Ia and Ib according to the invention.

[17] = i.p., nialamide + (±)-5-HTP, male mice

SMILES: Clc1ccc(C2CCNC=N2)cc1 (centres unmarked) [compound No. 18]
- teratogenic effect (chicken embryos): absence of teratogenic effects on chicken embryos

SMILES: c1ccc(C2=NCCCN2)cc1 [compound No. 2]
- teratogenic effect (chicken embryos): teratogenic

SMILES: CC1(C)NCC(O)(c2ccccc2)CN1 [CRL 41 365, 2,2-dimethyl-5-hydroxy-5-phenyl-1,2,3,4,5,6-hexahydropyrimidine]
- overall behavior and reactivities (mice [1]; 256 mg/kg): sedation, for 1 h; also recorded: a decrease in the heart rate for 1 h; also recorded: a decrease in the reactivity to touch for 0.5 h; also recorded: hypothermia for 3 h
- hypothermia, maximum intensity (mice [1]; 256 mg/kg, 0.5 h after administration): -1.6 °C
- overall behavior and reactivities (mice [1]; 16 and 64 mg/kg): no distinct modification of the behavior and reactivities compared with the control animals
- sedative effects ([2]; i.p.): sedation with a decrease in the reactivities in rats and mice, hypothermia in mice
- overall neuropsychopharmacological profile ([2]; summary): essentially a sedative
- action on stereotypies induced by amphetamine [3]: at all the doses studied, this product potentiates the stereotypies induced by amphetamine
- period of immobility (mice [4]): a very moderate decrease in the period of immobility of mice which have been forcibly immersed
- LD0 (maximum non-lethal dose) (male mice; intraperitoneal): greater than 512 mg/kg
- overall behavior and reactivities (rats; 8 mg/kg): no distinct modification of the behavior and reactivities compared with the control animals
- overall behavior and reactivities (rats; 32 mg/kg): sedation and a decrease in the breathing rate for 1 h; also recorded: a decrease in the reactivity to touch for 0.5 h
- overall behavior and reactivities (rats; 128 mg/kg): sedation and a decrease in the breathing rate for 3 h; also recorded: a decrease in the reactivity to touch for 1 h

SMILES: Cl.Fc1ccccc1C1CN=CNC1 (centres unmarked) [CRL 41 329, 5-(2-fluorophenyl)-1,4,5,6-tetrahydropyrimidine hydrochloride]
- action on hypothermia induced by apomorphine [5]: significant antagonism of the hypothermia induced by apomorphine, oxotremorine and reserpine
- rectal temperature (anesthetized dogs [6]): increases the rectal temperature
- skin temperature (anesthetized dogs [6]): increases the rectal temperature and skin temperature
- arterial blood pressure (anesthetized dogs [6]; intraduodenal): tends to increase the arterial blood pressure
- heart rate (anesthetized dogs [6]; intraduodenal): decrease the heart rate
- mydriasis and salivation (anesthetized dogs [6]; intraduodenal): causes mydriasis and substantial salivation
- respiratory arrhythmia (anesthetized dogs [6]; intraduodenal): causing respiratory arrhythmia
- effects of isoprenaline (anesthetized dogs [6]; isoprenaline 10 μg/kg): does not cause a distinct modification of the effects of isoprenaline on the diastolic arterial blood pressure and the heart rate
- hypertension induced by norepinephrine (anesthetized dogs [6]; norepinephrine 2 μg/kg): decreases the hypertension induced by norepinephrine
- overall behavior and reactivities (mice [1]; 0.5 mg/kg): moderate mydriasis for 2 h
- overall behavior and reactivities (mice [1]; 2 mg/kg, hydrochloride): sedation (2 out of 3 animals) for 0.5 h; also recorded: moderate and brief mydriasis for 0.5 h
- overall behavior and reactivities (mice [1]; 8 mg/kg, hydrochloride): sedation (2 out of 3 animals) for 0.5 h; also recorded: weak and brief mydriasis for 0.5 h
- overall behavior and reactivities (mice [1]; 32 mg/kg): sedation (3/3) 0.25 h after administration, then (2/3) 0.5 h after administration
- teratogenic effects (pregnant rabbits): devoid of harmful teratogenic effects on pregnant rabbits
- motor recovery after acute hypobaric hypoxia (mice [7]): a decrease in the motor recovery after hypoxic aggression
- antidepressant effects ([2]; i.p.): antidepressant effects appearing at all the doses used
- peripheral α-adrenergic stimulant effects ([2]; i.p.): modest effects capable of reflecting peripheral α-adrenergic stimulation
- sedative effects ([2]; i.p., hydrochloride): sedative effects appearing at high doses; also recorded: sedation with hypomotility; also recorded: low-intensity transient hypothermia
- analogy with β-adrenergic stimulants in the 5-HTP procedure ([8]; 5-HTP + MAOI): effects analogous to those of isoprenaline
- intensity of potentiation of 5-HTP effects ([8]; higher doses, 5-HTP + MAOI, male mice): the potentiation being very intense at the doses of 8 to 32 mg/kg
- head twitches [8, 17]: distinctly potentiate the partial trembling and the head twitches
- partial trembling [8, 17]: distinctly potentiate the partial trembling and the head twitches
- time taken for convulsions and death / lethal effects of gallamine triiodoethylate (mice [9]): aggravation of the lethal effects of electric shock and gallamine triiodoethylate in mice
- lethal effects of electric shock (mice [10]): aggravation of the lethal effects of electric shock and gallamine triiodoethylate in mice
- minimal effective dose [11]: ≥ 0.25 mg/kg
- action on stereotypies induced by amphetamine [3]: potentiates the stereotypies induced by amphetamine
- period of immobility (mice [4]): no decrease in the period of immobility due to "despair"
- action on hypothermia induced by oxotremorine [12]: significant antagonism of the hypothermia induced by apomorphine, oxotremorine and reserpine
- action on hypothermia induced by reserpine [13]: significant antagonism of the hypothermia induced by apomorphine, oxotremorine and reserpine
- toxic signs in the animals treated (male mice; 64 mg/kg i.p.): all the animals treated exhibit salivation, sedation and vasodilation of the tail
- toxic signs in the animals treated (male mice; 128 mg/kg i.p.): all the animals have asphyxiant convulsions
- LD0 (maximum non-lethal dose) (male mice; intraperitoneal): greater than 64 mg/kg
- LD100 (minimum dose lethal to all the animals) (male mice; intraperitoneal): ~128 mg/kg
- blood flows through the femoral and vertebral arteries (anesthetized dogs [14]): decreases the blood flows in the femoral and vertebral arteries
- intergroup aggressiveness (number of fights) (mice [15]): a decrease in the intergroup aggressiveness in mice
- overall behavior and reactivities (rats; 0.25 mg/kg): moderate mydriasis for 3 h
- overall behavior and reactivities (rats; 1 mg/kg): significant mydriasis for 3 h
- overall behavior and reactivities (rats; 4 mg/kg, hydrochloride): sedation (3/3) for 2 h; also recorded: a decrease in the reactivity to touch and the muscle tone; also recorded: piloerection (1/3) for 1 h; also recorded: significant mydriasis for at least 3 h (mydriasis still being apparent 24 h after administration)
- overall behavior and reactivities (rats; 16 mg/kg, hydrochloride): sedation (3/3) for 3 h; also recorded: a decrease in the reactivity to touch and the muscle tone; also recorded: significant mydriasis for 3 h (the mydriasis still being apparent 24 h after administration)
- results in human therapy (depression) [16]: excellent results
